Measured values reported in ChEMBL document CHEMBL5532663, “Discovery of Potent and Selective Phosphatidylinositol 3-Phosphate 5-Kinase (PIKfyve) Inhibitors as Methuosis Inducers” (J Med Chem, 2024).

How the values were obtained:
HeLa = assay: cells; settings: Homo sapiens, 24 h
Description: Antiproliferative activity against human HeLa cells assessed as inhibition of cell viability incubated for 24 hrs by CCK8 assay

MDA-MB-231 = assay: cells; settings: Homo sapiens, MDA-MB-231, 24 h
Description: Antiproliferative activity against human MDA-MB-231 cells assessed as inhibition of cell viability incubated for 24 hrs by CCK8 assay

[1] = target: T1, 1-phosphatidylinositol 3-phosphate 5-kinase (Homo sapiens, UniProt Q9Y2I7)
[2] = target: T1, 1-phosphatidylinositol 3-phosphate 5-kinase; assay: Binding affinity to PIKfyve (unknown origin) assessed as dissociation constant by KINOMEscan profiling method

T1 sequence (Q9Y2I7 whole entry): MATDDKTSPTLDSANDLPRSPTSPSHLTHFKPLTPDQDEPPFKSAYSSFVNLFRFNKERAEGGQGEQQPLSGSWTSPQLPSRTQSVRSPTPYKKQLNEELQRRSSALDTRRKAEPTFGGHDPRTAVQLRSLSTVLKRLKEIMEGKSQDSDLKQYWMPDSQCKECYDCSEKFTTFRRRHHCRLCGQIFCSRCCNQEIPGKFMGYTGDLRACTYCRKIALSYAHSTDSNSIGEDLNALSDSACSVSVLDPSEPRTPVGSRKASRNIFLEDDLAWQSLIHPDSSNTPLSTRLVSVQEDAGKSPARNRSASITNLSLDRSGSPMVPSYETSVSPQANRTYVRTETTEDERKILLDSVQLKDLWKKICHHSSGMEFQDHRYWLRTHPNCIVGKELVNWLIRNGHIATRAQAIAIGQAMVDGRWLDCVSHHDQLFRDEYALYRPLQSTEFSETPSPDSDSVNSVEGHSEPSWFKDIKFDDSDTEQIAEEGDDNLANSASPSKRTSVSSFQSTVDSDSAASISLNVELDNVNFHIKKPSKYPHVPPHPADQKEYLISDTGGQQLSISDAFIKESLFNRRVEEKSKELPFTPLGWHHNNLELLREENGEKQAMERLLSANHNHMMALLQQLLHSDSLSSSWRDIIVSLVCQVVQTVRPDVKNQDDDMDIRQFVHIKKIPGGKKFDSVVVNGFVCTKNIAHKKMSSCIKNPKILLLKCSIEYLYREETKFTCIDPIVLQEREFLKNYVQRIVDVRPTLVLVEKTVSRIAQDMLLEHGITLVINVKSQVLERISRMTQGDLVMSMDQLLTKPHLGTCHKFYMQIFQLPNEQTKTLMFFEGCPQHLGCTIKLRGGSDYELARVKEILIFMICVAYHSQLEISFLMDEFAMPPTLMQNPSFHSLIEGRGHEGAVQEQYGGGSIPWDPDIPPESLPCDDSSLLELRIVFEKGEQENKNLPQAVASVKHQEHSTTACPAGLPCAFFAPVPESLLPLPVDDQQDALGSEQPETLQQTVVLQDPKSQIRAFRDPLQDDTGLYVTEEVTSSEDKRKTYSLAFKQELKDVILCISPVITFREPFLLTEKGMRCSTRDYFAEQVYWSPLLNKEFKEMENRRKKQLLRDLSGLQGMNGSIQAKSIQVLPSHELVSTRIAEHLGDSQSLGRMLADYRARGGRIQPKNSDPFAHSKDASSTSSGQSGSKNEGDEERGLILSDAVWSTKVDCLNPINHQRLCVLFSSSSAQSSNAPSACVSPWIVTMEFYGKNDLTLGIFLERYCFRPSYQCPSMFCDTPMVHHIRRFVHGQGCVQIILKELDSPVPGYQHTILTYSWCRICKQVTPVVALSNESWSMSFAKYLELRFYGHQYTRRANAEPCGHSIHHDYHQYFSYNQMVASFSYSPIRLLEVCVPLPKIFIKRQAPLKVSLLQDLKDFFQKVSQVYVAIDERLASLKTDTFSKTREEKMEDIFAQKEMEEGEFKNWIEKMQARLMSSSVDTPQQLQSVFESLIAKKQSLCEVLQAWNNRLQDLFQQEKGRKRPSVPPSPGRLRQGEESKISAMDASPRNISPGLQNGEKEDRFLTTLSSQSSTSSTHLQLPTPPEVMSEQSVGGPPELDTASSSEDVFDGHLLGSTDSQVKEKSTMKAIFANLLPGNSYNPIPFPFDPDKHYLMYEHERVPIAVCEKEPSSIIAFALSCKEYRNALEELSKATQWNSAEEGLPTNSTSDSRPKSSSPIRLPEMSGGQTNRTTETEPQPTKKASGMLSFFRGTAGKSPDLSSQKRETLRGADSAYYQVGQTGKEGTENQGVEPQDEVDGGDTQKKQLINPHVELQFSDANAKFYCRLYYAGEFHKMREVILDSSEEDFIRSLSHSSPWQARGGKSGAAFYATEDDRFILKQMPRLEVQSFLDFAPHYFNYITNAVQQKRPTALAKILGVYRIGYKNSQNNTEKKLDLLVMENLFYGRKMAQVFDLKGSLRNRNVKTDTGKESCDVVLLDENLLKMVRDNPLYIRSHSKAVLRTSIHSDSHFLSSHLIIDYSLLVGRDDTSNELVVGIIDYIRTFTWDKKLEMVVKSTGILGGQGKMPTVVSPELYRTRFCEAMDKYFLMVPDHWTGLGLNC

Row | IC50 (HeLa) | IC50 (MDA-MB-231) | Kd [1] | Kd [2] | SMILES
1 | > 5000 nM | > 5000 nM |  |  | Nc1ncnc2c1c(-c1coc3ccccc13)cn2[C@H]1CC[C@@H](N)CC1
2 |  |  | 3.75 nM | 5.3 nM | COc1ccc2[nH]c(C)c(/C=C/C(=O)c3ccncc3)c2c1
3 | 430 nM | 350 nM | 1.65 nM |  | Nc1ncnc2c1c(-c1cc3ccccc3o1)cn2[C@H]1CC[C@@H](N)CC1
4 | 140 nM | 100 nM |  |  | Cc1cccc(/C=N/Nc2cc(N3CCOCC3)nc(OCCc3ccccn3)n2)c1 [APILIMOD]
